Data: patent publication US20230167088A1, “1-PYRAZINYLPYRAZOLYL-3-OXYALKYL ACIDS AND THEIR DERIVATIVES, AND THEIR USE FOR CONTROL OF UNDESIRED PLANT GROWTH” (BAYER AKTIENGESELLSCHAFT, priority 2020, published 2023)

Key:
[1] = tested on: VERPE; test: Herbicidal post-emergence action 1a (greenhouse pots, visual rating); assay type: in vivo, Veronica persica; settings: dosage 320 g/ha, visual rating about 3 weeks after treatment
Experimental: (§1) [table] a) Seeds of monocotyledonous and dicotyledonous weeds and crop plants are placed in sandy loam in plastic or organic plant pots, covered with soil and cultivated in a greenhouse under controlled growth conditions. 2 to 3 weeks after sowing, the test plants are treated at the one-leaf stage. The compounds of the invention, formulated in the form of wettable powders (WP) or as emulsion concentrates (EC), are then sprayed onto the green parts of the plants as aqueous suspension or emulsion with addition of 0.5% additive at a water application rate of 600 1/ha (converted). After the test plants have been kept in the greenhouse under optimum growth conditions for about 3 weeks, the activity of the preparations is rated visually in comparison to untreated controls. For example, 100% activity=the plants have died, 0% activity=like control plants. Tables A1 to A15 below show the effects of selected compounds of the general formula (I) according to Tables 1 and 2 on various harmful plants and an application rate corresponding to 320 g/ha and/or 80 g/ha, which were obtained by the experimental procedure mentioned above.

[2] = tested on: AMARE; test: as above; assay type: in vivo, Amaranthus retroflexus; settings: visual rating about 3 weeks after treatment
Experimental: as §1

[3] = tested on: AMARE; test: Herbicidal pre-emergence action 2a (greenhouse pots, visual scoring); assay type: in vivo, Amaranthus retroflexus; settings: dosage 320 g/ha, visual scoring after about 3 weeks vs untreated controls
Text: (§2) [table] a) Seeds of monocotyledonous and dicotyledonous weed plants and crop plants are placed in plastic or organic plant pots and covered with soil. The compounds of the invention, formulated in the form of wettable powders (WP) or as emulsion concentrates (EC), are then applied onto the surface of the covering soil as aqueous suspension or emulsion with addition of 0.5% additive at a water application rate of 600 1/ha (converted). After the treatment, the pots are placed in a greenhouse and kept under good growth conditions for the trial plants. After about 3 weeks, the effect of the preparations is scored visually in comparison with untreated controls as percentages. For example, 100% activity=the plants have died, 0% activity=like control plants. Tables B1 to B15 below show the effects of selected compounds of the general formula (I) according to Tables 1 and 2 on various harmful plants and an application rate corresponding to 320 g/ha and/or 80 g/ha, which were obtained by the experimental procedure mentioned above.

[4] = tested on: POLCO; test: Herbicidal post-emergence action 1a (greenhouse pots, visual rating); assay type: in vivo, Polygonum convolvulus; settings: dosage 320 g/ha, visual rating about 3 weeks after treatment
Experimental: as §1

[5] = tested on: VERPE; test: Herbicidal pre-emergence action 2a (greenhouse pots, visual scoring); assay type: in vivo, Veronica persica; settings: dosage 320 g/ha, visual scoring after about 3 weeks vs untreated controls
Text: as §2

[6] = tested on: ALOMY; test: Herbicidal post-emergence action 1a (greenhouse pots, visual rating); assay type: in vivo, Alopecurus myosuroides; settings: rated visually about 3 weeks after treatment, 100% = plants have died, 0% = like control plants
Experimental: as §1

[7] = tested on: SETVI; test: Herbicidal pre-emergence action 2a (greenhouse pots, visual scoring); assay type: in vivo, Setaria viridis; settings: dosage 320 g/ha, visual scoring after about 3 weeks vs untreated controls
Text: as §2

[8] = tested on: AVEFA; test: Herbicidal post-emergence action 1a (greenhouse pots, visual rating); assay type: in vivo, Avena fatua; settings: rated visually about 3 weeks after treatment, 100% = plants have died, 0% = like control plants
Experimental: as §1

[9] = tested on: ALOMY; test: Herbicidal pre-emergence action 2a (greenhouse pots, visual scoring); assay type: in vivo, Alopecurus myosuroides; settings: dosage 320 g/ha, visual scoring after about 3 weeks
Text: as §2

[10] = tested on: LOLRI; test: as above; assay type: in vivo, Lolium rigidum; settings: dosage 320 g/ha, visual scoring after about 3 weeks vs untreated controls
Text: as §2

[11] = tested on: AVEFA; test: as above; assay type: in vivo, Avena fatua; settings: dosage 320 g/ha, visual scoring after about 3 weeks
Text: as §2

[12] = tested on: VIOTR; test: Herbicidal post-emergence action 1a (greenhouse pots, visual rating); assay type: in vivo, Viola tricolor; settings: dosage 320 g/ha, visual rating about 3 weeks after treatment
Experimental: as §1

[13] = tested on: POLCO; test: Herbicidal pre-emergence action 2a (greenhouse pots, visual scoring); assay type: in vivo, Polygonum convolvulus; settings: dosage 320 g/ha, visual scoring after about 3 weeks vs untreated controls
Text: as §2

[14] = tested on: LOLRI; test: Herbicidal post-emergence action 1a (greenhouse pots, visual rating); assay type: in vivo, Lolium rigidum; settings: Dosage 320 g/ha; rated visually about 3 weeks after treatment; 100% = plants have died, 0% = like control plants
Experimental: as §1

[15] = tested on: STEME; test: Herbicidal pre-emergence action 2b (doubly sown, 1280 g/ha); assay type: in vivo, Stellaria media; settings: doubly sown pots, dosage 1280 g/ha, visual scoring after about 3 weeks
Text: (§3) [table] b) Seeds of mono- and dicotyledonous weed plants are placed in plastic pots in sandy loam soil (doubly sown with one species each of mono- or dicotyledonous weed plants per pot) and covered with soil. The compounds of the invention, formulated in the form of wettable powders (WP) or as emulsion concentrates (EC), are then applied onto the surface of the covering soil as aqueous suspension or emulsion with addition of 0.5% additive at a water application rate equivalent to 600 litres per hectare. After the treatment, the pots are placed in a greenhouse and kept under good growth conditions for the trial plants. After about 3 weeks, the effect of the preparations is scored visually in comparison with untreated controls as percentages. For example, 100% activity=the plants have died, 0% activity=like control plants. Tables B16 to B21 below show the effects of selected compounds of the general formula (I) according to Tables 1 and 2 on various harmful plants and at an application rate corresponding to 1280 g/ha, which were obtained by the experimental procedure mentioned above.

[16] = tested on: AMARE; test: as above; assay type: in vivo, Amaranthus retroflexus; settings: doubly sown pots, dosage 1280 g/ha, visual scoring after about 3 weeks
Text: as §3

[17] = tested on: POAAN; test: as above; assay type: in vivo, Poa annua; settings: doubly sown pots, dosage 1280 g/ha, visual scoring after about 3 weeks
Text: as §3

[18] = tested on: POAAN; test: Herbicidal post-emergence action 1b (twin sowing, 1280 g/ha); assay type: in vivo, Poa annua; settings: dosage 1280 g/ha, visual rating about 3 weeks after treatment
Experimental: [table] b) Seeds of mono- and dicotyledonous weed plants are placed in plastic pots in sandy loam soil (twin sowing with one species each of mono- or dicotyledonous weed plants per pot), covered with soil and cultivated in a greenhouse under controlled growth conditions. 2 to 3 weeks after sowing, the test plants are treated at the one-leaf stage. The compounds of the invention, formulated in the form of wettable powders (WP) or as emulsion concentrates (EC), are applied to the green parts of the plants as aqueous suspension or emulsion with addition of 0.5% additive at a water application rate equivalent to 600 litres per hectare. After the test plants have been kept in the greenhouse under optimum growth conditions for about 3 weeks, the activity of the preparations is rated visually in comparison to untreated controls. For example, 100% activity=the plants have died, 0% activity=like control plants. Tables A16 to A21 below show the effects of selected compounds of the general formula (I) according to Tables 1 and 2 on various harmful plants and at an application rate corresponding to 1280 g/ha, which were obtained by the experimental procedure mentioned above.

[19] = tested on: SETVI; test: Herbicidal post-emergence action 1a (greenhouse pots, visual rating); assay type: in vivo, Setaria viridis; settings: rated visually about 3 weeks after treatment, 100% = plants have died, 0% = like control plants
Experimental: as §1

[20] = tested on: MATIN; test: Herbicidal pre-emergence action 2b (doubly sown, 1280 g/ha); assay type: in vivo, Matricaria inodora; settings: doubly sown pots, dosage 1280 g/ha, visual scoring after about 3 weeks
Text: as §3

[21] = tested on: ECHCG; test: as above; assay type: in vivo, Echinochloa crus-galli; settings: doubly sown pots, dosage 1280 g/ha, visual scoring after about 3 weeks
Text: as §3

COC(=O)COc1nn(-c2cnccn2)c(-c2ccc(F)nc2)c1C1CC1 [Example I-84]
Post-emergence action against VERPE in % [1]: 80% | Post-emergence action against AMARE in % ([2]; dosage 80 g/ha): 90% | Post-emergence action against AMARE in % ([2]; dosage 320 g/ha): 90% | Pre-emergence action against AMARE in % [3]: 90% | Post-emergence action against POLCO in % [4]: 80%

CC(C)N(C)S(=O)(=O)NC(=O)COc1nn(-c2cnccn2)c(-c2ccc(F)nc2)c1Br [II-13]
Post-emergence action against AMARE in % ([2]; dosage 80 g/ha): 80% | Pre-emergence action against AMARE in % [3]: 90%

COC(=O)[C@@H](C)Oc1nn(-c2cnccn2)c(-c2ccc(F)nc2)c1C1CC1 [Example I-87]
Pre-emergence action against VERPE in % [5]: 80% | Post-emergence action against ALOMY in % ([6]; Dosage 80 g/ha): 100% | Pre-emergence action against SETVI in % [7]: 100% | Post-emergence action against AMARE in % ([2]; dosage 80 g/ha): 80% | Post-emergence action against AVEFA in % ([8]; Dosage 80 g/ha): 90% | Pre-emergence action against ALOMY in % [9]: 100% | Pre-emergence action against LOLRI in % [10]: 100% | Pre-emergence action against AVEFA in % [11]: 90%

C[C@@H](Oc1nn(-c2cnccn2)c(-c2ccc(F)nc2)c1Br)C(=O)NCC1CC1 [II-06]
Pre-emergence action against VERPE in % [5]: 100%

CN(C)S(=O)(=O)NC(=O)COc1nn(-c2cnccn2)c(-c2ccc(F)nc2)c1Br [II-12]
Pre-emergence action against SETVI in % [7]: 100% | Pre-emergence action against AMARE in % [3]: 80%

COC(=O)[C@@H](C)Oc1nn(-c2cnccn2)c(-c2cccc(F)c2)c1Br [Example 1-20]
Post-emergence action against VIOTR in % [12]: 90% | Pre-emergence action against LOLRI in % [10]: 100%

CCOC(=O)[C@@H](C)Oc1nn(-c2cnccn2)c(-c2ccc(F)nc2)c1C1CC1 [Example I-88]
Pre-emergence action against VERPE in % [5]: 90% | Pre-emergence action against POLCO in % [13]: 80% | Post-emergence action against ALOMY in % ([6]; Dosage 80 g/ha): 80% | Post-emergence action against ALOMY in % ([6]; Dosage 320 g/ha): 100% | Pre-emergence action against SETVI in % [7]: 80% | Post-emergence action against VERPE in % [1]: 80% | Post-emergence action against AMARE in % ([2]; dosage 320 g/ha): 80% | Post-emergence action against LOLRI in % [14]: 100% | Post-emergence action against AVEFA in % ([8]; Dosage 320 g/ha): 100% | Pre-emergence action against ALOMY in % [9]: 100% | Pre-emergence action against LOLRI in % [10]: 100% | Pre-emergence action against AVEFA in % [11]: 90% | Post-emergence action against POLCO in % [4]: 80%

COC(=O)C(C)Oc1nn(-c2cnccn2)c(-c2ccccc2)c1Br (racemic) [Example I-19]
Pre-emergence action at 1280 g/ha against STEME in % [15]: 100% | Pre-emergence action at 1280 g/ha against AMARE in % [16]: 100% | Pre-emergence action at 1280 g/ha against POAAN in % [17]: 100% | Post-emergence action at 1280 g/ha against POAAN in % [18]: 100%

COC(=O)C(C)Oc1nn(-c2nccnc2F)c(-c2ccc(F)nc2)c1Br (racemic) [Example I-78]
Pre-emergence action against SETVI in % [7]: 90% | Post-emergence action against VERPE in % [1]: 80% | Pre-emergence action against AMARE in % [3]: 80% | Post-emergence action against SETVI in % ([19]; Dosage 80 g/ha): 80% | Post-emergence action against SETVI in % ([19]; Dosage 320 g/ha): 100%

C=CCNC(=O)COc1nn(-c2cnccn2)c(-c2cccc(F)c2)c1Br [II-01]
Pre-emergence action at 1280 g/ha against STEME in % [15]: 100% | Pre-emergence action at 1280 g/ha against MATIN in % [20]: 100% | Pre-emergence action at 1280 g/ha against ECHCG in % [21]: 90% | Pre-emergence action at 1280 g/ha against AMARE in % [16]: 100% | Pre-emergence action at 1280 g/ha against POAAN in % [17]: 100%
